Source: US9241947B2, “Boronic acid derivatives and therapeutic uses thereof” (priority 2013, dated 2016)
pIC50, pKi: −log10 of the molar value. Read-outs that look alike come from different tables or passages of the source.

Legend:
[1] = biological target: T1, NDM-1 (Klebsiella pneumoniae, UniProt C7C422); type: biochemical; conditions: read-out: Ki NDM-1, Imipenem
[2] = biological target: T2, VIM-1 (Pseudomonas aeruginosa, UniProt A0A0F7KYQ8); type: biochemical; conditions: cleavage of nitrocefin (200 uM) by VIM-1 supernatant
T2 construct: made in house; host or cells: ECM6711 strain carrying pUCP24-VIM-1 plasmid (culture supernatant, not purified)

[3] = biological target: OXA-48 (Klebsiella pneumoniae, UniProt Q6XEC0); test: Inhibition of purified class D carbapenemase, biapenem substrate; type: biochemical; conditions: purified enzyme
Sequence of OXA-48 (Q6XEC0 23-265 limits assumed): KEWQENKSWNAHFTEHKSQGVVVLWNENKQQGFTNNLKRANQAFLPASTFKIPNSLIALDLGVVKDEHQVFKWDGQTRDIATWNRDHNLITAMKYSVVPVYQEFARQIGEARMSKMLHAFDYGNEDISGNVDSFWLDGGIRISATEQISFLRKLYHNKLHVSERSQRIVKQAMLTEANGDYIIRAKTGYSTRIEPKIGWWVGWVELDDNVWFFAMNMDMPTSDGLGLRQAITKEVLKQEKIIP

[4] = biological target: T1, NDM-1; type: biochemical; conditions: read-out: Ki, Imipenem
[5] = biological target: SHV-12 (Klebsiella pneumoniae, UniProt P0AD64, E235K/G234S/L31Q); test: Inhibition of nitrocefin cleavage by purified enzyme; type: biochemical; conditions: nitrocefin substrate; read-out: Ki (SHV-12, NCF)
Sequence of SHV-12 (P0AD64 22-286 L31Q/G234S/E235K): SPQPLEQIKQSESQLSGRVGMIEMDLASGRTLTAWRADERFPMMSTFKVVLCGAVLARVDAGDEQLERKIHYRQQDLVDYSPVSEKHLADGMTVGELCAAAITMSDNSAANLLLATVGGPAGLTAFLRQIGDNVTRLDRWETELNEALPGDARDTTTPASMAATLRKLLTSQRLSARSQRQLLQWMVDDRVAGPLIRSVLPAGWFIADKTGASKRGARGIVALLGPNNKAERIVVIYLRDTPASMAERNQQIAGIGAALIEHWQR
Protocol: Purified enzymes were mixed with various concentrations of inhibitors in reaction buffer and incubated for 10 min at room temperature. Nitrocefin was added and substrate cleavage profiles were recorded at 490 nm every 10 sec for 10 min.

[6] = system: EA1019 (SHV-5, VIM-1); test: Carbapenem potentiation against clinical isolate; type: cell-based, Enterobacter aerogenes; conditions: Klebsiella aerogenes; strain EA1019; read-out: Doripenem MIC Alone
Excerpt: (§1) The results are present in Table 6.
(§2) The results are present in Table 7.

[7] = system: KP1014 (VIM-1); test: Carbapenem potentiation against clinical isolate; type: cell-based; conditions: Klebsiella pneumoniae, strain KP1014
Excerpt: as §1, §2

[8] = system: EC1064 (NDM-1, CMY-6, CTX-M-15); test: Carbapenem potentiation against clinical isolate; type: cell-based; conditions: Escherichia coli, strain EC1064
Excerpt: as §1, §2

[9] = system: KP1004 (KPC-2, TEM-1, SHV-11); test: Carbapenem potentiation against clinical isolate; type: cell-based; conditions: Klebsiella pneumoniae, strain KP1004
Excerpt: as §1, §2

[10] = system: KP1087 (KPC-2, CTX-M-15, SHV-11, TEM-1); test: Carbapenem potentiation against clinical isolate; type: cell-based; conditions: Klebsiella pneumoniae, strain KP1087
Excerpt: as §1, §2

[11] = system: KP1081 (NDM-1, TEM-1, SHV-11, CMY-6, CTX-M-15); test: Carbapenem potentiation against clinical isolate; type: cell-based; conditions: Klebsiella pneumoniae, strain KP1081
Excerpt: as §1, §2

[12] = system: KP1054 (VIM-1, SHV-11); test: Carbapenem potentiation against clinical isolate; type: cell-based; conditions: Klebsiella pneumoniae, strain KP1054
Excerpt: as §1, §2

[13] = system: KP1084 (KPC-3, SHV-11, TEM-1); test: Carbapenem potentiation against clinical isolate; type: cell-based; conditions: Klebsiella pneumoniae, strain KP1084
Excerpt: as §1, §2

[14] = system: KP1064 (KPC-2, SHV-11, TEM-1); test: Carbapenem potentiation against clinical isolate; type: cell-based; conditions: Klebsiella pneumoniae, strain KP1064
Excerpt: as §1, §2

[15] = system: KP1086 (TEM, SHV, CTX-M-15, OXA-48); test: Carbapenem potentiation against clinical isolate; type: cell-based; conditions: Klebsiella pneumoniae, strain KP1086
Excerpt: as §1, §2

[16] = system: AB1144 (NDM-1); test: Carbapenem potentiation against clinical isolate; type: cell-based; conditions: Acinetobacter baumannii
Excerpt: as §1, §2

[17] = system: KP1074 (KPC-3, SHV-11, TEM); test: Carbapenem potentiation against clinical isolate; type: cell-based; conditions: Klebsiella pneumoniae, strain KP1074
Excerpt: as §1, §2

T1 sequence (C7C422 29-270 limits assumed): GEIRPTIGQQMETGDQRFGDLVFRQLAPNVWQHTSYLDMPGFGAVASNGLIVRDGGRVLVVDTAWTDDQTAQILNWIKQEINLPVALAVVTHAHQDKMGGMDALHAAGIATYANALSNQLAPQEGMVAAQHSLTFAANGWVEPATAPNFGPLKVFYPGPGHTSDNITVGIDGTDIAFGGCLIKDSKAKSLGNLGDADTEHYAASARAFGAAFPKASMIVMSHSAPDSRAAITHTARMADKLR

NC(=O)CCS[C@H]1Cc2cccc(C(=O)O)c2OB1O [Compound 9, (R)-3-(3-amino-3-oxopropylthio)-2-hydroxy-3,4-dihydro-2H-benzo[e][1,2]oxaborinine-8-carboxylic acid]
pKi [1]: < 7.00
pIC50 [2]: > 6.00
pKi [3]: 7.00 to 8.00
pKi [4]: < 7.00
pKi [5]: 6.00 to 7.00

CC(=N)S[C@H]1Cc2cccc(C(=O)O)c2OB1O [Compound 10, (R)-2-hydroxy-3-(1-iminoethylthio)-3,4-dihydro-2H-benzo[e][1,2]oxaborinine-8-carboxylic acid]
pKi [1]: 7.00 to 8.00
pIC50 [2]: ≤ 6.00
pKi [4]: 7.00 to 8.00

O=C(O)c1cccc2c1OB(O)[C@@H](Sc1nccs1)C2 [Compound 11, (R)-2-hydroxy-3-(thiazol-2-ylthio)-3,4-dihydro-2H-benzo[e][1,2]oxaborinine-8-carboxylic acid]
pKi [1]: < 7.00
pIC50 [2]: ≤ 6.00
pKi [4]: < 7.00
pKi [5]: > 7.00

O=C(O)c1cccc2c1OB(O)[C@@H](Sc1c[nH]nn1)C2 [Compound 12, (R)-3-(1H-1,2,3-triazol-4-ylthio)-2-hydroxy-3,4-dihydro-2H-benzo[e][1,2]oxaborinine-8-carboxylic acid]
pKi [1]: 7.00 to 8.00
pIC50 [2]: > 6.00
pKi [4]: 7.00 to 8.00

O=C(O)c1cccc2c1OB(O)[C@@H](OCc1ccccc1)C2 [Compound 13, (R)-3-(benzyloxy)-2-hydroxy-3,4-dihydro-2H-benzo[e][1,2]oxaborinine-8-carboxylic acid]
pKi [1]: 7.00 to 8.00
pIC50 [2]: > 6.00
pKi [4]: 7.00 to 8.00

Nn1cnnc1S[C@H]1Cc2cccc(C(=O)O)c2OB1O [Compound 14, (R)-3-(4-amino-4H-1,2,4-triazol-3-ylthio)-2-hydroxy-3,4-dihydro-2H-benzo[e][1,2]oxaborinine-8-carboxylic acid]
pIC50 [2]: > 6.00
pKi [5]: > 7.00

C[C@@H](O)[C@H]1C(=O)N2C(C(=O)O)=C(S[C@@H]3CN[C@H](CNS(N)(=O)=O)C3)[C@H](C)[C@H]12 [Doripenem]
MIC [6]: > 10 µg/mL
MIC ([7]; read-out: Doripenem MIC Alone): > 10 µg/mL
MIC ([8]; read-out: Doripenem MIC Alone): > 10 µg/mL
MIC ([9]; read-out: Doripenem MIC Alone): 1 to 10 µg/mL
MIC ([10]; read-out: Doripenem MIC Alone): > 10 µg/mL
MIC ([11]; read-out: Doripenem MIC Alone): > 10 µg/mL
MIC ([12]; read-out: Doripenem MIC Alone): > 10 µg/mL
MIC ([13]; read-out: Doripenem MIC Alone): > 10 µg/mL
MIC ([14]; read-out: Doripenem MIC Alone): > 10 µg/mL
MIC ([15]; read-out: Doripenem MIC Alone): > 10 µg/mL
MIC ([16]; strain AB1144, read-out: Doripenem MIC Alone): > 10 µg/mL
MIC ([17]; read-out: Doripenem MIC Alone): > 10 µg/mL

C[C@@H](O)[C@H]1C(=O)N2C(C(=O)O)=C(SCCN=CN)C[C@H]12 [Imipenem]
MIC ([7]; read-out: Imipenem MIC Alone): > 10 µg/mL
MIC ([8]; read-out: Imipenem MIC Alone): > 10 µg/mL
MIC ([9]; read-out: Imipenem MIC Alone): > 10 µg/mL
MIC ([10]; read-out: Imipenem MIC Alone): 1 to 10 µg/mL
MIC ([11]; read-out: Imipenem MIC Alone): > 10 µg/mL
MIC ([12]; read-out: Imipenem MIC Alone): 1 to 10 µg/mL
MIC ([13]; read-out: Imipenem MIC Alone): > 10 µg/mL
MIC ([14]; read-out: Imipenem MIC Alone): > 10 µg/mL
MIC ([15]; read-out: Imipenem MIC Alone): > 10 µg/mL
MIC ([16]; read-out: Imipenem MIC Alone): > 10 µg/mL
MIC ([17]; read-out: Imipenem MIC Alone): > 10 µg/mL

C[C@@H](O)[C@H]1C(=O)N2C(C(=O)O)=C(S[C@@H]3CN[C@H](C(=O)N(C)C)C3)[C@H](C)[C@H]12 [Meropenem]
MIC ([7]; read-out: Meropenem MIC Alone): 1 to 10 µg/mL
MIC ([8]; read-out: Meropenem MIC Alone): > 10 µg/mL
MIC ([9]; read-out: Meropenem MIC Alone): 1 to 10 µg/mL
MIC ([10]; read-out: Meropenem MIC Alone): > 10 µg/mL
MIC ([11]; read-out: Meropenem MIC Alone): > 10 µg/mL
MIC ([12]; read-out: Meropenem MIC Alone): > 10 µg/mL
MIC ([13]; read-out: Meropenem MIC Alone): > 10 µg/mL
MIC ([14]; read-out: Meropenem MIC Alone): > 10 µg/mL
MIC ([15]; read-out: Meropenem MIC Alone): > 10 µg/mL
MIC ([16]; strain AB1144, read-out: Meropenem MIC Alone): > 10 µg/mL
MIC ([17]; read-out: Meropenem MIC Alone): > 10 µg/mL
